Measured values taken from patent US20050107338A1, “Nutritional supplement enhancing mitochondrial function” (priority 2003, published 2005).

Experiments:
COX and SDH = COX and SDH levels in mitochondria of dosed rats; format: in vivo; details: daily dosing per Table 2, after one month, COX and SDH averaged, vs control group 7
Source text: A group of 154 rats are evenly divided between a control group and six study groups, resulting in 22 animals per group.
The change from baseline relative to the last study month in the levels of COX and SDH is compared among the seven study groups using one-way analysis of variance (ANOVA). The Dunnett t-test procedure is used to compare the control group to each of the six treatment groups. As a secondary analysis to evaluate for trends across time, repeated measures of ANOVA are to be used to compare the groups regarding the change in the COX and SDH levels over the three-month time intervals. […]
The assay for SDH measures the reduction of 2,6-dichlorophenolindophenol (DCPIP) when coupled to […] reduction of decylubiquinone (DB), monitoring the absorbance at 600 minus […] (extinction coefficient 19.1 mM^−1cm^−1) (Singer T P, 1976). The reduction of DCPIP is measured at 600 minus 520 nm in a 1 ml cuvette at 30° C. […] Antimycin A (2 μg/ml), rotenone (2 μg/ml), KCN (2 mM), and 50 μM DCPIP are added to the sample and the blank rate is recorded for 1 minute. The reaction is initiated by the addition of 50 uM DB and change in absorbance is monitored for 3 minutes.
The activity of cytochrome-c oxidase (COX) is measured by following the oxidation of reduced cytochrome c at 550 minus 540 nm (extinction coefficient 19.0 mM^−1 cm^−1) (Errede B, et al. 1996). […]

[1] = Age-related hearing loss in subjects treated separately with the compounds; format: in vivo; details: subjects treated separately with each compound
[2] = tested on: mitochondrial transcripts; details: pretreatment of senescent rats; time and dose-dependent; cited from earlier work
complex III = target: T1, complex III (Rattus norvegicus, UniProt P00159); details: by competition with coenzyme Q; cited from earlier work
T1 construct: decrease complex III activity in rat brain; host or cells: rat brain (mitochondria)

## CC(=O)N[C@@H](CS)C(=O)O [Study group 2, N-acetyl cysteine, reference compound]
COX and SDH
  increase in COX and SDH relative to the control group: 15%

## O=C(O)CCCCC1CCSS1 (stereo not shown) [Study group 1, lipoic acid]
[1]
  age-related hearing loss: improvement
COX and SDH
  increase in COX and SDH relative to the control group: 10%

## CC(=O)O[C@H](CC(=O)[O-])C[N+](C)(C)C [acetyl-L-carnitine]
[2]
  levels of mitochondrial transcripts: bring back the levels of mitochondrial transcripts to adult levels
[1]
  age-related hearing loss: improvement

## Oc1ccc(C=Cc2cc(O)cc(O)c2)cc1 [Study group 3, resveratrol]
Complex III
  complex III activity in rat brain: decrease
[1]
  age-related hearing loss: improvement
